Laboratory results taken from patent US10632144B2, “Low polydispersity, low molecular weight biotechnological chondroitin sulfate with anti-inflammatory and antiarthritis activity and use thereof in the prevention of osteoarthritis” (Gnosis S.p.A., priority 2012, dated 2020).

Key:
[1] = tested on: auxotrophic strains of E. coli; experiment: Bacterial reverse mutation test (OECD 471); type: cell-based
Description: (§1) The CS according to the invention was also tested for its toxicological safety in animals and on cell cultures according to various protocols designed to assess its potential genotoxicity at cell level and acute oral toxicity in the rat. All the tests used were validated and conducted according to OECD guidelines for pharmaceutical products.
(§2) The biotechnological CS was subjected to mutagenesis tests in bacterial cells (bacterial reverse mutation, Ref. OECD 471) which tested the ability of the product to induce the appearance of reverse mutants in auxotrophic strains of E. coli and Salmonella typhimurium.

[2] = tested on: auxotrophic strains of Salmonella typhimurium; experiment: Bacterial reverse mutation test (OECD 471); type: cell-based
Description: as §1, §2

C reactive protein (CRP) = experiment: AA rat model, biotech vs animal LMW-CS: CRP plasma levels; type: in vivo, male Lewis rats
Description: (§3) As described in Example 5, commercial (high-molecular-weight) chondroitin sulfate material was subjected to depolymerization according to Cho, under controlled condition, until the desired mean MW was reached.
(§4) The product of Example 5 was tested in vivo vs. biotechnological chondroitin of the invention obtained as described in Ex. 4 (equivalent to the product obtained from any of the Examples 1, 2 or 3).
(§5) Two key parameters were analyzed to determine the efficacy of the treatment in reducing the inflammation related to osteoarthritis: C reactive protein (CRP) and interleukin-6 (IL-6) plasma levels. […] CRP is another important marker for systemic inflammation, its plasmatic level rises up during arthritis progression. AA was induced in male Lewis rats with a single intradermal injection of heat-inactivated Mycobacterium butyricum in […] Freund's adjuvant. The following anti-osteoarthritic treatment consisted in daily oral (900 mg/kg b.w.) administrations of LMW-CS starting from day 0, i.e. the day of bacterial inoculation.

[3] = tested on: rats with Adjuvant Arthritis (AA); experiment: Adjuvant arthritis (AA) in rats: arthritis score; type: in vivo, male Lewis rats; parameters: key to Arthritis score: sum of oedema (1-8), forepaw diameter (1-5), scab diameter (1-5) scores
Description: (§6) AA was induced by a single intradermal injection of Mycobacterium butyricum in […] Freund's adjuvant. The study involved one group of healthy animals (HC), one group of untreated arthritic animals (AC) and two groups of arthritic animals treated with two different regimens. The first treatment regimen involved pre-treatment consisting of administration of 900 mg/kg of biotechnological CS a day for 14 days before arthritis was induced, continuing for 28 days after the induction of AA (PT). The second treatment regimen involved the administration of 900 mg/kg of biotechnological CS a day only during the 28 days after induction of AA (T).
(§7) 40 male Lewis rats weighing between 150 and 190 g were divided at random into four groups of 10 animals each, housed in polypropylene cages in an environment maintained at the temperature of 22±2° C., and fed on a standard laboratory diet with unlimited access to water.
(§8) The experimental groups were as follows:
(§9) 3) A group of arthritic rats orally treated with biotechnological CS at the dose of 900 mg/day per kg of body weight for 28 days after induction of AA (days 0-28 of the experiment) (T).
(§10) 4) A group orally pre-treated with biotechnological CS at the dose of 900 mg/day per kg of body weight for 14 days preceding the induction of AA, and for the 28 days after induction of AA (days −14 to 28 of the experiment) (PT).
(§11) The CS of the invention was dissolved in distilled water at the concentration of 20 mg/ml and administered orally as a single daily dose by gavage.
The arthritis score was evaluated by allocating a score to the observation of paw joint swelling (oedema), the extent of periarticular erythema and the diameter of the scab at the adjuvant injection site at the base of the tail. The arthritis score or arthrogram was measured as the sum total of oedema (in ml, score 1 to 8), plus the diameter of the forepaw (in mm, max score 1 to 5), plus the diameter of the scab at the site of application of Mycobacterium butyricum measured parallel to the spinal column (in mm, max score 1 to 5), for each animal.

interleukin-6 (IL-6) = experiment: AA rat model, biotech vs animal LMW-CS: IL-6 plasma levels; type: in vivo, male Lewis rats
Description: as §3, §4, §5

[4] = tested on: rats with Adjuvant Arthritis (AA); experiment: Adjuvant arthritis (AA) in rats: change in body weight; type: in vivo, male Lewis rats; settings: for increase in body weight relative to that of the healthy controls: 900 mg/kg/day, end of the study
Description: as §6, §7, §8, §9, §10, §11
The body weight of the rats was measured before induction of AA (day 0), on days 7, 14 and 21, and at the end of the treatment (day 28). The effect of the treatment on this parameter was evaluated by comparing the weight increases of the different groups during the treatment period.

Sprague-Dawley rats = experiment: Acute toxicity after oral administration; type: in vivo; settings: up to 2000 mg/kg body weight
Description: as §1
Finally, acute toxicity after oral administration was examined in Sprague-Dawley rats up to the dose of 2000 mg/kg of body weight.

[5] = tested on: rats with Adjuvant Arthritis (AA); experiment: Adjuvant arthritis (AA) in rats: hind paw oedema; type: in vivo, male Lewis rats
Description: as §6, §7, §8, §9, §10, §11
The oedema that developed as a consequence of arthritis was measured by observing the increase in volume of the hind paw with a caliper suitable for the measurement. The measurements were performed before the induction of AA (day 0) and on days 7, 14, 21 and 28 of the study.
The data were expressed as the percentage increase in oedema calculated with the following formula: [(Dayn/Day0)×100]−100, Day0 being the measurement on the initial day and Dayn the measurement on the day considered.

[6] = daily oral 900 mg/kg b.w. from day 0, day 14
[7] = daily oral 900 mg/kg b.w., 14 days of treatment
[8] = Pre-Treatment (PT): 900 mg/kg/day oral, days −14 to 28, day 0
[9] = Pre-Treatment (PT): 900 mg/kg/day oral, days −14 to 28, day 7
[10] = Pre-Treatment (PT): 900 mg/kg/day oral, days −14 to 28, day 14
[11] = Pre-Treatment (PT): 900 mg/kg/day oral, days −14 to 28, day 21
[12] = Treatment (T): 900 mg/kg/day oral, days 0-28, day 0
[13] = Treatment (T): 900 mg/kg/day oral, days 0-28, day 7
[14] = Treatment (T): 900 mg/kg/day oral, days 0-28, day 14
[15] = Treatment (T): 900 mg/kg/day oral, days 0-28, day 21
[16] = Treatment (T): 900 mg/kg/day oral, days 0-28, day 28
[17] = Pre-Treatment (PT): 900 mg/kg/day oral, days −14 to 28, day 28

## Low-molecular-weight chondroitin sulfate sodium salt [LMW-CS]
[1]
  bacterial mutagenicity (reverse mutants): No significant increase
[2]
  bacterial mutagenicity (reverse mutants): No significant increase
C reactive protein (CRP); [6]
  CRP plasma levels: 548.8 µg/mL
C reactive protein (CRP); [7]
  effect of treatment on CRP plasma levels: decreased
[3]; [8]
  Arthritis score: 10.0
[3]; [9]
  Arthritis score: 10.1
[3]; [10]
  Arthritis score: 13.1
[3]; [11]
  Arthritis score: 15.8
[3]; Pre-Treatment (PT): 900 mg/kg/day oral, days −14 to 28, day 28, listed as biotechnological CS, sulfate sodium salt
  Arthritis score: 19
[3]; Pre-Treatment (PT): 900 mg/kg/day oral, days −14 to 28, day 28, sulfate sodium salt
  Arthritis score: 19.0
[3]; [12]
  Arthritis score: 10.0
[3]; [13]
  Arthritis score: 10.0
[3]; [14]
  Arthritis score: 18.1
[3]; [15]
  Arthritis score: 22.7
[3]; [16]
  Arthritis score: 23.0
[3]; Treatment-only (T) group, 900 mg/kg/day
  influence on arthritis score during the study period: did not significantly influence
interleukin-6 (IL-6); [6]
  IL-6 plasma levels: 233.9 pg/mL
interleukin-6 (IL-6); [7]
  effect of treatment on IL-6 plasma levels: decreased
[4]; [8]
  Change in body weight: Δ(dayn − day0): 0.0 g
[4]; [9]
  Change in body weight: Δ(dayn − day0): 92.96 g
[4]; [10]
  Change in body weight: Δ(dayn − day0): 107.26 g
[4]; [11]
  Change in body weight: Δ(dayn − day0): 93.39 g
[4]; [17]
  Change in body weight: Δ(dayn − day0): 108.63 g
[4]; Pre-treatment (PT)
  increase in body weight relative to that of the healthy controls: 73%
[4]; [12]
  Change in body weight: Δ(dayn − day0): 0.0 g
[4]; [13]
  Change in body weight: Δ(dayn − day0): 85.19 g
[4]; [14]
  Change in body weight: Δ(dayn − day0): 89.19 g
[4]; [15]
  Change in body weight: Δ(dayn − day0): 68.39 g
[4]; [16]
  Change in body weight: Δ(dayn − day0): 79.78 g
[4]; Treatment alone (T)
  increase in body weight relative to that of the healthy controls: 54%
Sprague-Dawley rats; 14 days observation
  clinical signs: did not show any clinical signs of suffering
  mortality: no mortality occurred
Sprague-Dawley rats; end of the study
  autopsy of tissues and organs: did not indicate any signs of toxicity
[5]; [8]
  Change in hind paw swelling: [(Dayn/Day0) × 100] − 100: 0.0%
[5]; [9]
  Change in hind paw swelling: [(Dayn/Day0) × 100] − 100: 15.4%
[5]; [10]
  Change in hind paw swelling: [(Dayn/Day0) × 100] − 100: 26.7%
[5]; [11]
  Change in hind paw swelling: [(Dayn/Day0) × 100] − 100: 46.5%
[5]; [17]
  Change in hind paw swelling: [(Dayn/Day0) × 100] − 100: 49.7%
[5]; Pre-treated animals (PT), 900 mg/kg/day
  oedema developed in the hind paw vs untreated controls: significantly reduced
[5]; [12]
  Change in hind paw swelling: [(Dayn/Day0) × 100] − 100: 0.0%
[5]; [13]
  Change in hind paw swelling: [(Dayn/Day0) × 100] − 100: 13.1%
[5]; [14]
  Change in hind paw swelling: [(Dayn/Day0) × 100] − 100: 34.5%
[5]; [15]
  Change in hind paw swelling: [(Dayn/Day0) × 100] − 100: 62.8%
[5]; [16]
  Change in hind paw swelling: [(Dayn/Day0) × 100] − 100: 61.4%
